Test results taken from patent US9474757B2, “Methods for treating cancer using TOR kinase inhibitor combination therapy” (Signal Pharmaceuticals, LLC, priority 2013, dated 2016).

Legend:
[1] = tested on: WSU-DLCL2 xenograft; assay: DLBCL xenograft model (WSU-DLCL2); format: in vivo, SCID mice; details: combination study
Procedure: Severe combined immunodeficiency (SCID) mice were implanted with human DLBCL cell line (WSU-DLCL2) into the flank. Treatment of compounds started between Day 11 and Day 14 after cell inoculation. Randomized groups of mice (n=9 to 10/group) were treated with the single agents (Compound 1, Compound A or Compound AA) or the combination of Compound 1/Compound A, Compound A/Compound AA, or Compound 1/Compound AA. Compounds were administered orally on a once daily (Compound 1 and Compound A) or twice daily […] schedule for 21 days. The positive control consisted of CHOP therapy (combination of cyclophosphamide, doxorubicin, vincristine and prednisone). Compound 1 and Compound A were formulated in CMC-Tween (carboxymethylcellulose/Tween 80/deionized water). Compound AA was suspended in DSP (dimethylsulphoxide/solutol/phosphate buffered saline).
Initial studies were conducted in order to determine the antitumor activity of Compound 1 and to identify a dose level for the combination studies. In the WSU-DLCL2 xenograft model, Compound 1 inhibited tumor growth in a dose-dependent fashion. […] In a subsequent combination study, Compound 1 was dosed at 10 mg/kg, once daily (QD). Compound A and Compound AA were dosed at 30 mg/kg (QD) and 50 mg/kg (BID), respectively.

[2] = tested on: OCILy10 xenografts; assay: CIVO arrayed microinjection, OCILy10 xenograft, cleaved caspase 3; format: in vivo, Nu/Nu mice
Procedure: (§1) Anesthetized Nu/Nu mice harboring xenografted tumors were injected with multiple individual compounds or compound combinations, simultaneously, each into a distinct location of the tumor. Precise, controlled delivery of the compounds was evaluated for spatially defined and cellular changes around sites of tumor microinjection across xenograft models of DLBCL. Tumors were resected and injection quality was assessed by IVIS imaging of co-injected near-infrared tracking dye. Sections from representative regions down the z-axis of the tumor were prepared for staining with biomarkers of pathway inhibition and tumor response. Samples were then batch scanned in a Caliper Pannoramic slide scanner, resulting in high resolution images compatible with single cell analysis and subsequent data quantification via Presage's CIVO™ analyzer custom image analysis platform (for technology description, see R. Klinghoffer et al, AACR, 2014 and Presagebio.com).
In order to evaluate combination treatment with Compound 1, Compound A and Compound AA, mice with OCILy10 xenografts were treated systemically with Compound A 30 mpk QD×4 followed by Compound A 30 mpk and Compound 110 mpk QD×3. At 3 hours after the 7th systemic dose, Compound AA (15.4 μg in 4 μL injected) was injected locally at three sites. […]

[3] = tested on: SUDHL4 (DLBCL) xenografts; assay: CIVO arrayed microinjection, SUDHL4 xenograft, cleaved caspase 3; format: in vivo, Nu/Nu mice; details: systemic Compound A 30 mpk QD×8 -/+ dexamethasone 5 mpk, local Compound 2 13 μg in 4 μL
Procedure: as §1
In order to evaluate combination effects of Compound A with other compounds in the DLBCL model SUDHL4, vehicle or Compound A (30 mpk QD×8)−/+ dexamethasone (5 mpk QD×8) was given systemically. […] Apoptosis was evaluated by measurement of the apoptosis marker, cleaved caspase 3 (CC3), which was plotted as a function of distance from the injection site.

[4] = tested on: OCI-Ly10 xenograft; assay: OCI-Ly10 DLBCL xenograft model; format: in vivo, SCID mice
Excerpt: OCI-Ly10 cells are derived from a diffuse-large B-cell lymphoma, a type of non-Hodgkins lymphoma. Female SCID mice (Fox Chase SCID®, CB 17/Icr-Prkdcscid, Charles River), characterized by severe combined T and B cell immunodeficiency, were 10 weeks old, with body weights ranging from 15.4 to 24.2 g, on Day 1 of this study. In brief, female CB.17 SCID mice were inoculated with 5×10^6 OCI-Ly10 cells subcutaneously, and tumors were allowed to grow to approximately 100-150 mm^3 before stratification into treatment groups, so as to yield groups with comparably sized tumors prior to treatment. In addition to the efficacy treatment groups, some mice were stratified into short-term treatment groups and their tumors were collected 4 hours post final dosing in groups that received saline, 30 mg/kg or 10 mg/kg Compound A, or 3 mg/kg Compound 1 once daily for seven days, starting on day 27. Frozen, and fixed paraffin-embedded, samples were analyzed. In the efficacy arm of the study, dosing began on Day 1 (D1) in 12 groups of mice (n=10/group) with established subcutaneous tumors (mean volumes, 120-129 mm^3). Compound A (at two dose levels) and Compound 1 (at one dose level) were each administered once daily for 28 days (qd×28). Control mice received the vehicle, 5% DMSO/15% Solutol® HS15/80% PBS, p.o. b.i.d.×28. On D29 a 21-day dosing extension, from day 33 to day 53, in the control and five test groups was implemented, resulting in b.i.d.×28/4/21 or qd×28/4/21 schedules for these groups.
Tumors were calipered twice weekly, and each mouse in the efficacy study was euthanized when its tumor reached the 1000 mm^3 volume endpoint, or on day 61, whichever came first. Efficacy was determined from tumor growth delay (TGD), defined as the increase in the median time-to-endpoint (TTE) in drug-treated (T) versus vehicle-treated (C) mice, and from the significance of survival extension.

[5] = 28-day schedule: Compound A 30 mg/kg qd×28, alone or with Compound 1
[6] = extended schedule qd×28/4/21: Compound A 10 mg/kg, Compound 1 3 mg/kg, alone or combined

Cc1nc2cccc(N)c2c(=O)n1C1CCC(=O)NC1=O (centres unmarked) [Compound A, 3-(5-Amino-2-methyl-4-oxoquinazolin-3(4H)-yl)-piperidine-2,6-dione]
decrease in tumor volume (TVR) vs vehicle ([1]; Day 34, Compound 1 10 mg/kg QD, Compound A 30 mg/kg QD, Compound AA 50 mg/kg BID, oral): 30% | body weight loss ([1]; single agents or in combination): No significant body weight loss | cell death (CC3 positive sites) at Compound AA injection sites ([2]; systemic Compound A 30 mpk, with or without Compound 1 10 mpk, local Compound AA): did not lead to cell death | CC3 positive sites ([2]; systemic dose, local injection of Compound AA 15.4 μg in 4 μL, total sites 18 and 26): 0 | apoptosis (cleaved caspase 3) induced by local treatment with Compound 2 [3]: enhanced induction of apoptosis | apoptosis (cleaved caspase 3) induced by local treatment with Compound 2 ([3]; listed as compound A): enhanced cell death | tumor growth delay (TGD), % ([4]; 28-day schedule: Compound A 30 mg/kg qd×28): 88% | PRs [4, 5]: two | survivors (n=10/group) [4, 5]: seven | tumor growth delay (TGD) [4, 5]: 28.6 days | tumor growth delay (TGD), % ([4]; extended schedule qd×28/4/21: Compound A 10 mg/kg, Compound 1 3 mg/kg): 27% | PRs / regressions [4, 6]: no regressions | survivors (n=10/group) [4, 6]: three | tumor growth delay (TGD) [4, 6]: 8.9 days
